# In patent US20020177580A1, “Means and method for hormonal contraception” (priority 2001, published 2002):
# “Also recorded” adds a separate entry of the source.
# Key:
# [1] = compared with commercially used synthetic progestogens; cited from earlier work
# ovulation = details: humans; reported by Claassen et al., Acta Endocrinologica (1967); cited from earlier work
# [2] = hormone replacement therapy with 17beta-estradiol dydrogesterone (Grisar et al., 1999); cited from earlier work
# women = test: Clinical study with dydrogesterone as progestogen-only preparation (Example 5); assay type: in vivo, human; details: 20 mg dydrogesterone once a day, uninterruptedly for 4 months
# From the text: Women participating in the study described in these examples are all selected on the basis that they are users of ‘high’ dose monophasic ethinyl estradiol-containing combined oral contraceptives. The reasons for applying this selection criterion is that there is a dose-relationship between follicular development and ethinyl estradiol whether given alone or in combination with a progestogen, i.e. less follicular development in the presence of the higher dose. Participation of the females involved in the study starts at a moment of (almost) complete suppression of follicular development. This condition is not met if a female has her first day of bleeding in a natural cycle, after a tablet-free interval, or immediately after a low-dose combined oral contraceptive.
# A clinical study with dydrogesterone as a progestogen-only preparation is conducted in 8 women who were selected on the basis of the criteria mentioned in Example 1. The 8 women receive a 20 mg dosage of dydrogesterone once a day, uninterruptedly during a period of 4 months.
smiles,measurement,setting,value
"CC(=O)[C@H]1CC[C@H]2[C@@H]3C=CC4=CC(=O)CC[C@@]4(C)[C@@H]3CC[C@]12C [dydrogesterone, 9β,10α-pregna-4,6-diene-3,20-dione]","estrogenic, glucocorticoid, anabolic or androgenic properties",[1],"does not exhibit estrogenic, glucocorticoid, anabolic or androgenic properties"
same,inhibition of ovulation,ovulation,cannot be used to inhibit ovulation; also recorded: does not inhibit ovulation in humans
same,adverse effects on blood pressure,[2],no adverse effects on blood pressure
same,irregular bleeding,women,some unpredictable irregular bleeding
same,menses flow,women,reduction of the usual menses flow
same,ovulation inhibition,women,Ovulation is inhibited
